Consider one compound from patent US6835867B1, “Allelic series of genomic modifications in cells” (priority 1998, dated 2004).

Values joined by “and” are separate entries in the source; they are usually repeats but may differ in a detail not shown here. Equal entries are not always repeated. “Also recorded” adds a separate entry of the source.

Assay [1] concerns Mouse ES cells (129/Sv+Tyr, +p). The assay is described as follows: Survival of ES cells after 5 hour ENU treatment (colony counting). Type of assay: cell-based. Conditions: for survival: 5 hours, counted after 3 days of culture. On the procedure:
Mouse ES cells (129/Sv+^Tyr, +^p) were used. Cells were grown in culture medium [MEM (Gibco) supplemented with 15% heat-inactivated fetal calf serum, LIF, and 10 μM β-mercaptoethanol. Cells were routinely grown on 100-mm petri dishes and cultivated at 37° C. in a humidified atmosphere of 5% CO2 in air. For subculturing, cells were disassociated with HBSS containing 0.25% trypsin and 0.02% EDTA. After a 3-minute incubation at room temperature, cells were resuspended in culture medium and cell numbers determined using a hemocytometer.
The plating efficiency was determined by plating 2×10^3 cells per 100-mm dish, fixing the cells after 6-days with methanol, staining with 0.01% crystal violet and scoring colonies. Colonies were scored for the calculation of plating efficiency as percent of the inoculated cell number. The plating efficiencies were approximately 20%.
In the first protocol, actively growing ES cells were trypsinized and plated at 5×10^5 cells per T25 flask and after 1 day preincubation treated for 5 hours with 0.3 mg/ml, 0.4 mg/ml or 0.5 mg/ml ENU (dissolved in medium without FCS by vigorous shaking and filter sterilization with 0.2 μm cellulose acetate filters immediately before use). Control cells and cells which had been treated with ENU were washed three times with PBS and the number of surviving cells determined after 3 days of culture in culture medium by plating 2,000 cells from control and from ENU-treated flasks and counting surviving colonies as described above. […] Surviving EA cells which had been treated with 0.3 mg/ml ENU were subcultured at 3:1 onto 60-mm petri dishes in the presence (set 1) and absence (set 2) of primary embryothic fibroblasts (PMEFs). ES cells grown on PMEFs (set 1) were cultured for 3 days, subcultured at 3:1 onto 60-mm petri dishes without PMEFs, trypsinized, plated at 4×10^5 cells per 100-mm plate without PMEFs and grown for 2 days. ES cells grown in the absence of PMEFs (set 2) were trypsinized-after 5 days in culture and plated at 4×10^5 cells per 100-mm plate without PMEFs. Cells (set 1 and set 2) were subsequently grown for 1 day prior to the addition of 10 μM 6-TG to the culture medium and further incubated for an additional 6 days in the presence of 6-TG. The number of 6-TG resistant colonies was calculated, and individual colonies were separately plated in a 96-well microtiter dish.
In the second protocol, actively growing ES cells were trypsinized and plated at two densities (1×10^5 and 0.5×10^5 cells/well) in 24-well tissue culture plates instead of T25 flasks. After a one-day preincubation period, cells were treated for 5 hours with 0.3 mg/ml or 0.4 mg/ml ENU (as described above) and subsequently treated as described in Table 2.

The test system of assay [2] is hypoxanthine guanine phosphoribosyltransferase (Hprt) gene in mouse embryonic stem (ES) cells. The experiment in a line: ENU-induced Hprt-inactivating mutations, 6-TG selection, Protocol 2 (24-well plates). Type of assay: cell-based. On the procedure: In the second protocol, actively growing ES cells were trypsinized and plated at two densities (1×10^5 and 0.5×10^5 cells/well) in 24-well tissue culture plates instead of T25 flasks. After a one-day preincubation period, cells were treated for 5 hours with 0.3 mg/ml or 0.4 mg/ml ENU (as described above) and subsequently treated as described in Table 2. [table]

Assay [3] shares this test system. The experiment in a line: ENU-induced Hprt-inactivating mutations, 6-TG selection, Protocol 1. The format is cell-based. Conditions: 0.3 mg/ml ENU.
For assay [4] the following is noted: literature statement; cited from earlier work.

Take `CCN(N=O)C(N)=O` [ENU, N-ethyl-N-nitrosurea]: the survival in assay [1] (0.3 mg/ml ENU) was 10%; in assay [1] (0.4 mg/ml ENU), “less than 5%”; in assay [1] (0.5 mg/ml ENU) it was 0%. The colonies surviving entry in assay [1] (0.4 mg/ml ENU, Plate 3, 5 days after plating, plate discarded) is listed as “Discarded, very few”. Also, the Total colonies result in assay [2] (0.3 mg/ml ENU, Plate 1) is on record as “Total: 23 colonies”; in assay [2] (0.3 mg/ml ENU, Plate 2), “Total: 12 colonies”; in assay [2] (0.4 mg/ml ENU, Plate 4) it was “Total: 22 colonies”. Also, the No. colonies/plate result in assay [2] (0.3 mg/ml ENU, Plate 1, day 16, individual 60-mm dishes) is listed as “Plate 2: 3 colonies; also recorded: Plate 3: 5 colonies; also recorded: Plate 5: 1 colony colonies; also recorded: Plate 6: 1 colony colonies; also recorded: Plate 7: 2 colonies; also recorded: Plate 8: 2 colonies; also recorded: Plate 9: 4 colonies”; in assay [2] (0.3 mg/ml ENU, Plate 2, day 16, individual 60-mm dishes) it was “Plate 2: 1 colony colonies; also recorded: Plate 3: 2 colonies; also recorded: Plate 4: 1 colony colonies; also recorded: Plate 5: 4 colonies; also recorded: Plate 6: 2 colonies”; in assay [2] (0.4 mg/ml ENU, Plate 4, day 17, individual 60-mm dishes), “Plate 1: 14 colonies; also recorded: Plate 2: 18 colonies”. Besides, the “plates that yielded colonies after 6-thioguanine” value is 9 plates yielded colonies, in assay [2] (0.3 mg/ml ENU, Plate 1, day 16, of 24 dishes); 6 plates yielded colonies, in assay [2] (0.3 mg/ml ENU, Plate 2, day 16, of 24 dishes); 2 plates yielded colonies, 22 in assay [2] (0.4 mg/ml ENU, Plate 4, day 17, of 24 dishes). Also, in assay [2] (0.4 mg/ml ENU, Plate 4), the Mutation frequency maximum is reported as 1/800. Moreover, the “Total colonies (+PMEF plates)” value in assay [3] (10 μM 6-TG, sum of 6 plates) is 21. Besides, the “Total colonies (−PMEF plates)” value in assay [3] (10 μM 6-TG, sum of 6 plates) stood at 77. The “Mutation Frequency Maximum (−PMEF plates)” value in assay [3] (Hprt locus) is given as 1/623. For the same compound, in assay [3] (set 2 grown without PMEFs, 10 μM 6-TG, plates 1-6), the “No. Surviving Colonies (−PMEF plates), 6-TG selection (Hprt deficient), per plate” value was 14 and 15 and 12 and 9. Besides, the “efficiency in generating mutations relative to other agents” value in assay [4] is listed as “at least 10 fold”.
